Tests used:
[1] = tested on: wild-type Salmonella enterica serovar Typhimurium strain LT2; test: MIC determination by broth microdilution; format: cell-based; conditions: Table 3; ∼10^5 cfu/ml; three biological replicates
Procedure: MIC values were determined by broth microdilution according to standard protocols with a few modifications ([26]). An overnight bacterial cell culture, supplemented with the appropriate antibiotic when needed, was diluted 1:100 in fresh MHB and grown to OD600 0.5. The obtained culture was diluted to ∼10^5 cfu/ml or 10^6 cfu/ml, as indicated, in non-cation-adjusted MHB. Subsequently, 190 μl bacterial solution was dispensed into a 96-well plate (Thermo Fisher Scientific) along with 10 μl of a 20x PPNA, PNA or peptide working solution. Growth was monitored by measuring the OD at 600 nm every 20 min in a Synergy H1 plate reader (Biotek) with continuous double-orbital shaking (237 cpm) at 37°C for 24 h.
Fig. S5. Growth k inetics for MIC determ ination of 10^5 cfu/m l Salmonella wt (LT 2) and its isogenic
Pho PC m utant in the presen ce of var ying co ncentra tio n s of the in dicat ed co njugat e s. ( A) KFF-acpP,
KFF-acpP-scram bled (scr) or KFF peptide in s erial dilutions from 10 µM to 0.3 µM. ( B) RXR- acpP,
RXR- acpP-scram bled (scr) or RXR peptide in serial dilutions from 10 µM to 0.3 µ M. ( C) T at-acpP,
T at-acpP-scram bled (scr) or T at peptide in serial dilutions from 20 µM to 0.6 µM. Data represent
the average of three biological replicates, error bars indicate standard error of the m ean (SEM).
(1 picture or pasted object on this page, not shown here)

[2] = tested on: Salmonella wt; test: Kinetics of bactericidal effects (cfu determination and spot assay); format: cell-based, Salmonella enterica serovar Typhimurium; conditions: ∼10^6 cfu/ml, 5 μM KFF-acpP, 5 μM RXR-acpP, 10 μM Tat-acpP versus scrambled counterparts; for time post treatment from which killing / reduced cfu/ml was visible: time points 15, 20, 40, 60, 120 min, performed three times
Procedure: An overnight bacterial cell culture was diluted 1:100 in fresh MHB and grown to OD600 0.5. The obtained culture was diluted to approximately 10^6 cfu/ml in non-cation-adjusted MHB. Afterwards, aliquots of 10 μl were directly used as input condition for cfu determination and spot assay on LB agar plates. Regarding the latter, serial dilutions were prepared as indicated, to evaluate the alteration of living bacteria upon exposure to the different PPNAs. At the same time, 190 μl of this bacterial solution was placed into 2 ml eppendorf tubes along with 10 μl of a 20× on-target or scrambled PPNA solution, adjusting the indicated MICs. At the indicated time points post treatment, aliquots were used for cfu determination and spot assay.
Figure 3. Kinetics of bactericidal effects for (A) 5 μM KFF-acpP versus 5 μM KFF-acpP-scr, (B) 5 μM RXR-acpP versus 5 μM RXR-acpP-scr and (C) 10 μM Tat-acpP versus 10 μM Tat-acpP-scr against Salmonella wt (∼10^6 cfu/ml). After the indicated time points post treatment (15, 20, 40, 60, 120 min), aliquots of each sample were harvested to determine the number of viable cells over time (cfu/ml […]; left panels). Additional aliquots were subjected to spot assays on LB agar plates, including the indicated dilutions (right panels). The experiment was performed three times. Error bars indicate standard error of the mean.

[3] = tested on: fabF mRNA; test: RNA-seq differential expression, second gene of the dicistron; format: cell-based, Salmonella enterica serovar Typhimurium; conditions: edgeR, versus water; 15 min; 5 μM KFF-/RXR-constructs, 10 μM Tat-constructs; triplicates
Procedure: Bacterial overnight cultures were diluted 1:100 in fresh MHB and grown to OD600 0.5. The obtained cultures were diluted to ∼10^6 cfu/ml in non-cation-adjusted MHB. Afterward, the bacterial solution was transferred into low-binding 5 ml tubes (LABsolute) along with the 20× PNA, peptide or PPNA solution. The final concentrations were 5 μM for KFF- and RXR-PNAs, and 10 μM for Tat-PNAs. Equimolar concentrations were used for the respective peptide control conditions. As a negative control, cells were treated with the respective volume of sterile nuclease-free water, which was used as solvent for the test compounds. […]
DNase treatment, cDNA library preparation and sequencing was conducted at Vertis (Munich, Germany). […] The cDNA was purified using the Agencourt AMPure XP kit (Beckman Coulter Genomics) and was analyzed by capillary electrophoresis. […] The cDNA pool was sequenced on an Illumina NextSeq 500 system using 75 bp read length.
Reads from the RNA-Seq experiments were trimmed, filtered and mapped against the S. enterica subsp. enterica serovar Typhimurium SL1344 reference genome and the three plasmids pSLT_SL1344, pCol1B9_SL1344 (other name is p2), and pRSF1010_SL1344 ([19]). […]
All downstream analysis was performed using packages from the R/Bioconductor project. The raw read counts were imported and analyzed with edgeR (v3.30.0). […]

GRKKKRRQRRRYK [Tat-acpP, Tat peptide conjugated to 10-mer antisense PNA against acpP]
MIC in μM, LT2 wt [1]: 2.5 to 5 µM | bactericidal effects (cfu/ml, spot assay) [2]: time-delayed and less pronounced | time post treatment from which killing / reduced cfu/ml was visible [2]: ≥ 40 min

KFFKFFKFFK [KFF-acpP, KFF peptide conjugated to 10-mer antisense PNA against the translational start site of acpP]
MIC in μM, LT2 wt [1]: 1.25 µM | bactericidal effects (cfu/ml, spot assay) [2]: fast and strong killing | time post treatment from which killing / reduced cfu/ml was visible [2]: ≥ 15 min | logFC fabF [3]: -1.1555

RXRRXRRXRRXRXB [RXR-acpP, RXR peptide conjugated to 10-mer antisense PNA against acpP]
MIC in μM, LT2 wt [1]: 1.25 µM | bactericidal effects (cfu/ml, spot assay) [2]: fast and strong killing | time post treatment from which killing / reduced cfu/ml was visible [2]: ≥ 15 min

Source: publication PMC8096218, “Global RNA profiles show target selectivity and physiological effects of peptide-delivered antisense antibiotics” (Nucleic Acids Research, 2021)
